# Entries after “also recorded” stand apart in the source; their conditions may differ.
# Experiments:
# [1] = tested on: let-7a; assay: let-7a level in mouse peritoneal macrophages; assay type: cell-based; details: 10 μM, 48 h
# Procedure: For cultured mouse peritoneal macrophages, cells were primed with 30 ng/ml of TGF-β1 (R&D Systems, 7666-MB0-005) for 48 h (to increase TET3 expression) before Bobcat339 treatment. Bobcat339 (or DMSO) was added at a final concentration of 10 μM, followed by RNA and protein extraction at time points indicated in the figure legends.
# For let-7a qPCR, 10 ng of total RNA was reverse transcribed to cDNA in a reaction volume of 10 μl using miRCURY LNA RT Kit (QIAGEN, 339340). Quantitative real-time PCR reactions were carried out using miRCURY LNA SYBR Green PCR Kit (QIAGEN, 339346) and a let-7a-specific primer (Has-Let-7a-5p miRCURY LNA miRNA PCR Assay, QIAGEN, 339306/YP00205727) in a Bio-Rad iCycler. Gene expression levels were normalized against U6 (U6 snRNA v2 miRURY LNA miRNA PCR Assay, QIAGEN, 339306/YPO2119464, QIAGEN).
# [2] = tested on: MDMs; assay: TUNEL assay in human MDMs; assay type: cell-based; details: 10 μM, 48 h
# Procedure: For TET3 expression restoration experiments, cells seeded in 24-well plates were infected with Ad-GFP or Ad-TET3 at 4000 gc/cell. Following 16 h of infection, vehicle or Bobcat339 were added at a final concentration of 10 μM. Protein and RNA were isolated 48 hours later and analyzed.
# These were performed using the In Situ Cell Death Detection Kit (Sigma Aldrich, 12156792910). Briefly, cells were fixed with 4% paraformaldehyde in PBS for 1 h at RT and rinsed with PBS, followed by permeabilization with 0.1% Triton X-100 in 0.1% sodium citrate for 2 min on ice. TUNEL reaction mixture was added and incubation was carried out at 37 °C for 60 min. DAPI was added to counter-stain the cells for 1 min. The slides were coverslipped and scoped using a Keyence BZ-X700 fluorescence microscope.
# [3] = Tolerability of Bobcat339 in mice; assay type: in vivo, mouse; details: disease models in mice
# [4] = tested on: Agrp promoter; assay: ChIP-qPCR at the Agrp promoter in mouse ARC; assay type: in vivo; details: leptin 5 mg/kg
# Procedure: To prepare antibodies, 5 μl (packed volume) of ChIP grade Dynabeads Protein G (Invitrogen, Thermo Scientific, 10004D) were washed twice with 1 ml of binding buffer (0.2% Tween-20 in PBS), followed by incubation on a rotator with 10 μg of rabbit polyclonal anti-TET3 (Active Motif, 61395) (FIG. 12A), anti-STAT3 (Proteintech, 10253-2-AP), anti-NCOR1 (Cell Signaling, 5948S) (Hainberger et al., 2020, Front Immunol., 11:579), anti-HDAC4 (Active Motif, 40969) (FIG. 12B), anti-H3K9ac (Active Motif, 39137) (validated by the vendor), or preimmune rabbit IgG (as a negative control) in 350 μl of binding buffer at 4 °C overnight (Gao, Y. et al., 2020, Advanced Science, 7:2002518; Hainberger, D. et al., 2020, Frontiers in Immunology, 11:579). Antibody bound beads were washed twice with 1 ml of binding buffer, resuspended in 50 μl of dilution buffer (0.01% SDS, 1.1% Triton X-100, 1.2 mM EDTA, 16.7 mM Tris-HCl at PH 8.0, 167 mM NaCl), and kept on ice until use. To prepare chromatin, freshly isolated ARCs (2 ARCs from one mouse per ChIP, FIG. 6D and FIG. 6I) were washed twice with 1 ml of cold-PBS, followed by cross-linking in 1% paraformaldehyde/PBS on a rotator at room temperature for 15 min. Glycine buffer (150 mM final concentration) was added and incubated in rotation at room temperature for 10 min to quench cross-linking. Cross-linked ARCs were washed twice with PBS and homogenized (5-10 strokes) using a disposable pellet pestle (Fisher Scientific, 12-141-368) in 300 μl of cold cell lysis buffer (50 mM Tris-HCl at PH 8.0, 140 mM NaCl, 1 mM EDTA, 10% glycerol, 0.5% NP-40, 0.25% Triton X-100), followed by incubation at 4 °C for 20 min to lyse the plasma membrane. […]
Molecule,let-7a level [1],apoptosis (TUNEL) [2],apoptosis (TUNEL / Caspase-1) ([2]; with Ad-TET3),side effects / toxicity [3],histone acetylation (H3K9ac) at the Agrp promoter [4],"binding of STAT3, TET3, NCOR1, and HDAC4 to the Agrp promoter ([4]; AAV-sgTet3 mice)","binding of STAT3, TET3, NCOR1, and HDAC4 to the Agrp promoter ([4]; control mice)"
"Nc1nc(=O)n(-c2cccc(-c3ccccc3)c2)cc1Cl [Bobcat339, 4-Amino-1-[1,1′-biphenyl]-3-yl-5-chloro-2(1H)-pyrimidinone]",higher levels of let-7a,increased apoptosis; also recorded: induced apoptosis; also recorded: a significant increase in pyroptotic cell death,abolished when TET3 protein was restored to control levels; also recorded: not seen when TET3 expression level was restored,without discernible toxicity; also recorded: without discernible side effects; also recorded: no discernible toxicity,–,–,–
"leptin: adipose hormone; mouse leptin L3772-1MG or human leptin L4146-1MG, Sigma Aldrich",–,–,–,–,reduction was observed in histone acetylation at the Agrp promoter,failed to do so in AAV-sgTet3 injected mice,"increased binding of STAT3, TET3, NCOR1, and HDAC4 to the Agrp promoter"

# — patent publication US20260355199A1, “COMPOSITIONS AND METHODS FOR TREATING OR PREVENTING NONALCOHOLIC STEATOHEPATITIS (NASH), ANOREXIA, DEPRESSION, ENDOMETRIOSIS, AND OTHER DISEASES OR DISORDERS” (priority 2022, published 2026)
